Measurements from patent US10988523B2, “Modified lipidated Relaxin B chain peptides and their therapeutic use” (Sanofi, priority 2018, dated 2021).
*1 amine or outer side, *2 acyl side, *3 side chain or, on linkers, in order; H or OH if unused. Where a SMILES comes first, the peptide text is derived from it. Side-chain parts run from the residue outwards. [ ]: non-standard residue; d: D form. The star is where a group is joined. Docosanoyl = CCCCCCCCCCCCCCCCCCCCCC(=O)*; γGlu = O=C(O)[C@H](CCC(=O)[*:2])N[*:1]; Pentadecanoyl = CCCCCCCCCCCCCCC(=O)*; Stearoyl = CCCCCCCCCCCCCCCCCC(=O)*; Palmitoyl = CCCCCCCCCCCCCCCC(=O)*; Myristoyl = CCCCCCCCCCCCCC(=O)*; αMeK = C[C@](N)(CCCCN)C(=O)O; Nle = CCCC[C@H](N)C(=O)O; AEEA = NCCOCCOCC(=O)O; Aib = CC(C)(N)C(=O)O

Target: T1, RXFP1 (Homo sapiens, UniProt Q9HBX9)
T1 construct: OVCAR5 cells expressing endogenous RXFP1; endogenous in cells; host or cells: OVCAR5 cells
T1 sequence (Q9HBX9 1-757): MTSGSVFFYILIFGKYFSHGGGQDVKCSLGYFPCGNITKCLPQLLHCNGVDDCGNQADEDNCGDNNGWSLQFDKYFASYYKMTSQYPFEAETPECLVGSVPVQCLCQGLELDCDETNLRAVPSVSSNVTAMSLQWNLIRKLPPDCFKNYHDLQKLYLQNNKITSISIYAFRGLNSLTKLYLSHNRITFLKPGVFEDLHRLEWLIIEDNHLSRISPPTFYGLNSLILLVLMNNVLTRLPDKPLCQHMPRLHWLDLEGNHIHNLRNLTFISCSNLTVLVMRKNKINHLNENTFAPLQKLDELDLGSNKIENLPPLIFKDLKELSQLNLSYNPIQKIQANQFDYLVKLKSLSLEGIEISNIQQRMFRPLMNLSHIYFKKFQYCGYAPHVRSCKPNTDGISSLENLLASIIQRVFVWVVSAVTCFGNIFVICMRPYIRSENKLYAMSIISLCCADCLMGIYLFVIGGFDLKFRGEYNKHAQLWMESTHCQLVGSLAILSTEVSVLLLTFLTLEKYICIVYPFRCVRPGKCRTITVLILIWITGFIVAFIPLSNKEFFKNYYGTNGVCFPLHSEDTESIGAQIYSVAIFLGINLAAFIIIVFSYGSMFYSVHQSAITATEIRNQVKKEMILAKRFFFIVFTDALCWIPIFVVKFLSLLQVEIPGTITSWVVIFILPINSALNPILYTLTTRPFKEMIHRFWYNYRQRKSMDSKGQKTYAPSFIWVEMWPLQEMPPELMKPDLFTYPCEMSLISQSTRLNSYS
Test: OVCAR5 cAMP assay (HTRF), RXFP1 agonist activity
Type: cell-based
Conditions: for EC50: OVCAR5 cells, cAMP HTRF, read-out: EC50 (nM), OVCAR 5 cells (cAMP); for Emax: OVCAR-5, maximal cAMP relative to H2-relaxin maximum (100%), read-out: EMax, OVCAR 5 cells (cAMP)
Summary of the method: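 cAMP accumulation readout: after 1 mM IBMX for 40 min, endogenous-RXFP1 OVCAR5 cells got rising peptide concentrations without FCS, 30 min, 37° C, then lysis with HTRF cAMP reagents. Nonlinear regression gave EC50; Emax expressed relative to H2-relaxin maximum, same occasion.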

| EC50 [nM] | Emax [%] | SMILES |
| --- | --- | --- |
| 0.19 | 85 | CCCCCCCCCCCCCCCCCCCCCC(=O)N[C@@H](CCC(=O)N[C@@H](CCC(=O)N[C@@H](CCC(=O)NCCOCCOCC(=O)NCCOCCOCC(=O)NCCOCCOCC(=O)NCCCC[C@H](NC(=O)[C@H](CCCCNC(C)=O)NC(=O)[C@H](CCCCN)NC(=O)[C@H](CCCNC(=N)N)NC(=O)C(C)(C)NC(=O)[C@H](CO)NC(=O)[C@H](Cc1c[nH]c2ccccc12)NC(=O)[C@@H](NC(=O)[C@H](CO)NC(=O)[C@H](CCCC)NC(=O)CNC(=O)[C@H](CCC(=O)O)NC(=O)C(C)(C)NC(=O)C(C)(C)NC(=O)[C@@H](NC(=O)[C@H](CCCCNC(C)=O)NC(=O)[C@H](C)NC(=O)[C@H](CCCNC(=N)N)NC(=O)[C@@H](NC(=O)[C@H](CCCCN)NC(=O)[C@H](CCC(=O)O)NC(=O)[C@H](CCCNC(=N)N)NC(=O)CNC(=O)[C@H](CCC(=O)O)NC(=O)[C@H](CC(C)C)NC(C)=O)C(C)C)[C@@H](C)CC)[C@@H](C)O)C(N)=O)C(=O)O)C(=O)O)C(=O)O [compound 173] (Ac-LEGREKVRAK(Ac)I[Aib][Aib]EG[Nle]STWS[Aib]RKK(Ac)K([AEEA-AEEA-AEEA-γGlu-γGlu-γGlu-Docosanoyl])-NH2) |
| 17.6 | 93 | CCCCCCCCCCCCCC(=O)N[C@@H](CCC(=O)N[C@@H](CCC(=O)N[C@@H](CCC(=O)NCCOCCOCC(=O)NCCOCCOCC(=O)NCCOCCOCC(=O)NCCCC[C@H](NC(=O)[C@H](CCCCNC(C)=O)NC(=O)[C@H](CCCCN)NC(=O)[C@H](CCCNC(=N)N)NC(=O)C(C)(C)NC(=O)[C@H](CO)NC(=O)[C@H](Cc1c[nH]c2ccccc12)NC(=O)[C@@H](NC(=O)[C@H](CO)NC(=O)[C@H](CCCC)NC(=O)CNC(=O)[C@H](CCC(=O)O)NC(=O)C(C)(C)NC(=O)C(C)(C)NC(=O)[C@@H](NC(=O)[C@H](CCCCNC(C)=O)NC(=O)[C@H](C)NC(=O)[C@H](CCCNC(=N)N)NC(=O)[C@@H](NC(=O)[C@H](CCCCN)NC(=O)[C@H](CCC(=O)O)NC(=O)[C@H](CCCNC(=N)N)NC(=O)CNC(=O)[C@H](CCC(=O)O)NC(=O)[C@H](CC(C)C)NC(C)=O)C(C)C)[C@@H](C)CC)[C@@H](C)O)C(N)=O)C(=O)O)C(=O)O)C(=O)O [compound 178] (Ac-LEGREKVRAK(Ac)I[Aib][Aib]EG[Nle]STWS[Aib]RKK(Ac)K([AEEA-AEEA-AEEA-γGlu-γGlu-γGlu-Myristoyl])-NH2) |
|  | 91 | CCCCCCCCCCCCCCCC(=O)N[C@@H](CCC(=O)N[C@@H](CCC(=O)N[C@@H](CCC(=O)NCCCC[C@H](NC(=O)COCCOCCNC(=O)COCCOCCNC(=O)COCCOCCNC(=O)COCCOCCNC(=O)[C@H](CCCCNC(C)=O)NC(=O)[C@H](C)NC(=O)[C@H](CCCNC(=N)N)NC(=O)[C@](C)(CCCCN)NC(=O)[C@H](CO)NC(=O)[C@H](Cc1ccccc1)NC(=O)[C@@H](NC(=O)[C@H](CO)NC(=O)[C@H](CCCC)NC(=O)CNC(=O)[C@H](CCC(=O)O)NC(=O)C(C)(C)NC(=O)C(C)(C)NC(=O)[C@@H](NC(=O)[C@H](CCCCNC(C)=O)NC(=O)[C@H](C)NC(=O)[C@H](CCCNC(=N)N)NC(=O)[C@@H](NC(=O)[C@H](CCCCN)NC(=O)[C@H](CCC(=O)O)NC(=O)[C@H](CCCNC(=N)N)NC(=O)CNC(=O)[C@H](CCC(=O)O)NC(=O)[C@H](CC(C)C)NC(C)=O)C(C)C)[C@@H](C)CC)[C@@H](C)O)C(N)=O)C(=O)O)C(=O)O)C(=O)O [compound 192] (Ac-LEGREKVRAK(Ac)I[Aib][Aib]EG[Nle]STFS[αMeK]RAK(Ac)[AEEA][AEEA][AEEA][AEEA]K([γGlu-γGlu-γGlu-Palmitoyl])-NH2) |

More lines, now with the values behind:

| SMILES | EC50 [nM] | Emax [%] |
| --- | --- | --- |
| CCCCCCCCCCCCCCCCCC(=O)NCCOCCOCC(=O)N[C@@H](CCC(=O)N[C@@H](CCC(=O)N[C@@H](CCC(=O)NCCOCCOCC(=O)NCCOCCOCC(=O)NCCCC[C@H](NC(=O)[C@H](CCCCN)NC(=O)[C@H](CCCCN)NC(=O)[C@H](CCCNC(=N)N)NC(=O)C(C)(C)NC(=O)[C@H](CO)NC(=O)[C@H](Cc1c[nH]c2ccccc12)NC(=O)[C@@H](NC(=O)[C@H](CO)NC(=O)[C@H](CCCC)NC(=O)CNC(=O)[C@H](CCC(=O)O)NC(=O)C(C)(C)NC(=O)C(C)(C)NC(=O)[C@@H](NC(=O)[C@H](CCC(N)=O)NC(=O)[C@H](C)NC(=O)[C@H](CCCNC(=N)N)NC(=O)[C@@H](NC(=O)[C@H](CCCCN)NC(=O)[C@H](CCC(=O)O)NC(=O)[C@H](CCCNC(=N)N)NC(=O)CNC(=O)[C@H](CCC(=O)O)NC(=O)[C@H](CC(C)C)NC(C)=O)C(C)C)[C@@H](C)CC)[C@@H](C)O)C(N)=O)C(=O)O)C(=O)O)C(=O)O [compound 98] (Ac-LEGREKVRAQI[Aib][Aib]EG[Nle]STWS[Aib]RKKK([AEEA-AEEA-γGlu-γGlu-γGlu-AEEA-Stearoyl])-NH2) |  | 99 |
| CCCCCCCCCCCCCCCCCC(=O)N[C@@H](CCC(=O)N[C@@H](CCC(=O)N[C@@H](CCC(=O)NCCOCCOCC(=O)NCCOCCOCC(=O)NCCOCCOCC(=O)NCCCC[C@H](NC(=O)[C@H](CCCCN)NC(=O)[C@H](CCCCN)NC(=O)[C@H](CCCNC(=N)N)NC(=O)C(C)(C)NC(=O)[C@H](CO)NC(=O)[C@H](Cc1c[nH]c2ccccc12)NC(=O)[C@@H](NC(=O)[C@H](CO)NC(=O)[C@H](CCCC)NC(=O)CNC(=O)[C@H](CCC(=O)O)NC(=O)C(C)(C)NC(=O)C(C)(C)NC(=O)[C@@H](NC(=O)[C@H](CCC(N)=O)NC(=O)[C@H](C)NC(=O)[C@H](CCCNC(=N)N)NC(=O)[C@@H](NC(=O)[C@H](CCCCN)NC(=O)[C@H](CCC(=O)O)NC(=O)[C@H](CCCNC(=N)N)NC(=O)CNC(=O)[C@H](CCC(=O)O)NC(=O)[C@H](CC(C)C)NC(C)=O)C(C)C)[C@@H](C)CC)[C@@H](C)O)C(N)=O)C(=O)O)C(=O)O)C(=O)O [compound 75] (Ac-LEGREKVRAQI[Aib][Aib]EG[Nle]STWS[Aib]RKKK([AEEA-AEEA-AEEA-γGlu-γGlu-γGlu-Stearoyl])-NH2) | 0.07 | 88 |
| CCCCCCCCCCCCCCC(=O)N[C@@H](CCC(=O)N[C@@H](CCC(=O)N[C@@H](CCC(=O)NCCOCCOCC(=O)NCCOCCOCC(=O)NCCOCCOCC(=O)NCCCC[C@H](NC(=O)[C@H](CCCCNC(C)=O)NC(=O)[C@H](CCCCN)NC(=O)[C@H](CCCNC(=N)N)NC(=O)C(C)(C)NC(=O)[C@H](CO)NC(=O)[C@H](Cc1c[nH]c2ccccc12)NC(=O)[C@@H](NC(=O)[C@H](CO)NC(=O)[C@H](CCCC)NC(=O)CNC(=O)[C@H](CCC(=O)O)NC(=O)C(C)(C)NC(=O)C(C)(C)NC(=O)[C@@H](NC(=O)[C@H](CCCCNC(C)=O)NC(=O)[C@H](C)NC(=O)[C@H](CCCNC(=N)N)NC(=O)[C@@H](NC(=O)[C@H](CCCCN)NC(=O)[C@H](CCC(=O)O)NC(=O)[C@H](CCCNC(=N)N)NC(=O)CNC(=O)[C@H](CCC(=O)O)NC(=O)[C@H](CC(C)C)NC(C)=O)C(C)C)[C@@H](C)CC)[C@@H](C)O)C(N)=O)C(=O)O)C(=O)O)C(=O)O [compound 163] (Ac-LEGREKVRAK(Ac)I[Aib][Aib]EG[Nle]STWS[Aib]RKK(Ac)K([AEEA-AEEA-AEEA-γGlu-γGlu-γGlu-Pentadecanoyl])-NH2) |  | 87 |
| CCCCCCCCCCCCCCCC(=O)N[C@@H](CCC(=O)N[C@@H](CCC(=O)NCCOCCOCC(=O)NCCCC[C@H](NC(=O)[C@H](CCCCN)NC(=O)[C@H](CCCNC(=N)N)NC(=O)C(C)(C)NC(=O)[C@H](CO)NC(=O)[C@H](Cc1c[nH]c2ccccc12)NC(=O)[C@@H](NC(=O)[C@H](CO)NC(=O)[C@H](CCCC)NC(=O)CNC(=O)[C@H](CCC(=O)O)NC(=O)C(C)(C)NC(=O)C(C)(C)NC(=O)[C@@H](NC(=O)[C@H](C)NC(=O)[C@H](C)NC(=O)[C@H](CCCNC(=N)N)NC(=O)[C@@H](NC(=O)[C@H](CCCCN)NC(=O)[C@H](CCC(=O)O)NC(=O)[C@H](CCCNC(=N)N)NC(=O)CNC(=O)[C@H](CCC(=O)O)NC(=O)[C@H](CC(C)C)NC(=O)[C@H](CCC(=O)O)NC(C)=O)C(C)C)[C@@H](C)CC)[C@@H](C)O)C(N)=O)C(=O)O)C(=O)O [compound 54] (Ac-ELEGREKVRAAI[Aib][Aib]EG[Nle]STWS[Aib]RKK([AEEA-γGlu-γGlu-Palmitoyl])-NH2) |  | 98 |
| CCCCCCCCCCCCCCCC(=O)N[C@@H](CCC(=O)NCCCC[C@H](NC(=O)CC[C@H](NC(=O)CC[C@H](NC(=O)COCCOCCNC(=O)COCCOCCNC(=O)[C@H](CCCCNC(C)=O)NC(=O)[C@H](CCCCN)NC(=O)[C@H](CCCNC(=N)N)NC(=O)C(C)(C)NC(=O)[C@H](CO)NC(=O)[C@H](Cc1c[nH]c2ccccc12)NC(=O)[C@@H](NC(=O)[C@H](CO)NC(=O)[C@H](CCCC)NC(=O)CNC(=O)[C@H](CCC(=O)O)NC(=O)C(C)(C)NC(=O)C(C)(C)NC(=O)[C@@H](NC(=O)[C@H](CCC(N)=O)NC(=O)[C@H](C)NC(=O)[C@H](CCCNC(=N)N)NC(=O)[C@@H](NC(=O)[C@H](CCCCN)NC(=O)[C@H](CCC(=O)O)NC(=O)[C@H](CCCNC(=N)N)NC(=O)CNC(=O)[C@H](CCC(=O)O)NC(=O)[C@H](CC(C)C)NC(C)=O)C(C)C)[C@@H](C)CC)[C@@H](C)O)C(=O)O)C(=O)O)C(N)=O)C(=O)O [compound 118] (Ac-LEGREKVRAQI[Aib][Aib]EG[Nle]STWS[Aib]RKK(Ac)[AEEA][AEEA][γGlu][γGlu]K([γGlu-Palmitoyl])-NH2) |  | 86 |
